The supplement of paper PMC7287046

What was measured:
Conditions in all cases: exposure time: 72 h
AM38 = test: Chou-Talalay combination index (dimensionless); higher = less synergy (more antagonism)
Description: (§1)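 Glioma cell lines were treated for 72 h with a 6x6 matrix of two drugs, each in twofold dilutions with the top dose at the single-drug IC50. Viability was read by CellTiter-Glo and normalised to DMSO controls, in triplicate. The Chou-Talalay combination index was computed by the median effect principle; CI < 0.8 means synergy.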

SF539 [1] = test: as above
Description: as §1

U251 [2] = test: as above
Description: as §1

SF268 [3] = test: as above
Description: as §1

U87 [4] = test: as above
Description: as §1

KNS42 = test: as above
Description: as §1

SNB75 [5] = test: as above
Description: as §1

U118 [6] = test: as above
Description: as §1

T98 = test: as above
Description: as §1

SF539 [7] = test: HSA synergy score (Combenefit); higher = more synergy
Description: (§2)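 The same 6x6 dose matrices of drug pairs on glioma cell lines (72 h, CellTiter-Glo viability normalised to DMSO, triplicate) were scored with Combenefit. The Loewe, Bliss and HSA synergy scores are given; paper thresholds are Loewe 7.8 and Bliss 2.5.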

U251 [8] = test: as above
Description: as §2

KNS-42 [9] = test: as above
Description: as §2

SF268 [10] = test: as above
Description: as §2

U87 [11] = test: as above
Description: as §2

AM-38 [12] = test: as above
Description: as §2

SNB75 [13] = test: as above
Description: as §2

T98G [14] = test: as above
Description: as §2

U118 [15] = test: as above
Description: as §2

SF539 [16] = test: Bliss synergy score (Combenefit); higher = more synergy; extreme values may be limits of the assay
Description: as §2

U251 [17] = test: as above
Description: as §2

KNS-42 [18] = test: as above
Description: as §2

SF268 [19] = test: as above
Description: as §2

U87 [20] = test: as above
Description: as §2

AM-38 [21] = test: as above
Description: as §2

SNB75 [22] = test: as above
Description: as §2

T98G [23] = test: as above
Description: as §2

U118 [24] = test: as above
Description: as §2

SF539 [25] = test: Loewe synergy score (Combenefit); higher = more synergy; extreme values may be limits of the assay
Description: as §2

U251 [26] = test: as above
Description: as §2

KNS-42 [27] = test: as above
Description: as §2

SF268 [28] = test: as above
Description: as §2

U87 [29] = test: as above
Description: as §2

AM-38 [30] = test: as above
Description: as §2

SNB75 [31] = test: as above
Description: as §2

T98G [32] = test: as above
Description: as §2

U118 [33] = test: as above
Description: as §2

Row | Compound | Chou-Talalay combination index (AM38) | Chou-Talalay combination index (SF539 [1]) | Chou-Talalay combination index (U251 [2]) | Chou-Talalay combination index (SF268 [3]) | Chou-Talalay combination index (U87 [4]) | Chou-Talalay combination index (KNS42) | Chou-Talalay combination index (SNB75 [5]) | Chou-Talalay combination index (U118 [6]) | Chou-Talalay combination index (T98) | HSA synergy score (SF539 [7]) | HSA synergy score (U251 [8]) | HSA synergy score (KNS-42 [9]) | HSA synergy score (SF268 [10]) | HSA synergy score (U87 [11]) | HSA synergy score (AM-38 [12]) | HSA synergy score (SNB75 [13]) | HSA synergy score (T98G [14]) | HSA synergy score (U118 [15]) | Bliss synergy score (SF539 [16]) | Bliss synergy score (U251 [17]) | Bliss synergy score (KNS-42 [18]) | Bliss synergy score (SF268 [19]) | Bliss synergy score (U87 [20]) | Bliss synergy score (AM-38 [21]) | Bliss synergy score (SNB75 [22]) | Bliss synergy score (T98G [23]) | Bliss synergy score (U118 [24]) | Loewe synergy score (SF539 [25]) | Loewe synergy score (U251 [26]) | Loewe synergy score (KNS-42 [27]) | Loewe synergy score (SF268 [28]) | Loewe synergy score (U87 [29]) | Loewe synergy score (AM-38 [30]) | Loewe synergy score (SNB75 [31]) | Loewe synergy score (T98G [32]) | Loewe synergy score (U118 [33])
1 | Cc1cc([C@@H](C)Nc2ccccc2C(=O)O)c2nc(N3CCOCC3)cc(=O)n2c1 [AZD6482] + CCOc1nc(NC(=O)Cc2cc(OC)ccc2OC)cc(N)c1C#N [JNK inhibitor VIII] | 0.77 | 0.545 | 0.731 | 0.792 | 0.576 | 0.994 | 1 | 0.669 | 0.758 | 7.49 | 0.00428 | 0.866 | 4.35 | 1 | 17 | 6.97 | 11.5 | 8.89 | 0.0312 | 0.00428 | 0.255 | 0.107 | 1 | 14.5 | 6.97 | 10.8 | 2.95 | 1.84 | 0.00428 | 0.866 | 0.654 | 1 | 15.4 | 6.97 | 11.5 | 2.68
2 | O=c1[nH]c2ccccc2n1C1CCN(Cc2ccc(-c3[nH]c4cc5ncnc5cc4nc3-c3ccccc3)cc2)CC1 [Akt inhibitor VIII] + N#CC(c1ccnc(NCCc2cccnc2)n1)c1nc2ccccc2s1 [AS601245] | 0.584 | 0.966 | 0.641 | 0.805 | 0.0154 | 0.979 | 0.89 | 0.264 | 0.031 | 0.651 | 3.96 | 3.65 | 8.59 | 12.3 | 14 | 5.96 | 17.9 | 12.4 | 0.0617 | 3.96 | 0.964 | 1.39 | 10.4 | 8.16 | 1.31 | 9.74 | 5.46 | 0.638 | 3.96 | 1.66 | 0.94 | 6.85 | 11.2 | 0.62 | 9.66 | 7.71
3 | C[C@@H](Oc1cc(-c2cnn(C3CCNCC3)c2)cnc1N)c1c(Cl)ccc(F)c1Cl [Crizotinib] + C=CCc1cccc(/C=N/NC(=O)CN2CCN(Cc3ccccc3)CC2)c1O [PAC-1] | 0.937 | 0.877 | 0.821 | 1.04 | 0.154 | 0.421 | 0.951 | 0.584 | 0.476 | 3.88 | 1.43 | 16.5 | 1.21 | 4.47 | 0.987 | 5.78 | 2.4 | 2.29 | 1.39 | 0.0857 | 7.19 | 0 | 4.47 | 0.773 | 0.417 | 2.4 | 0.539 | 0.62 | 1.22 | 15.3 | 0.692 | 4.47 | 0.141 | 0.297 | 2.4 | 0.609
4 | C[C@@H](Oc1cc(-c2cnn(C3CCNCC3)c2)cnc1N)c1c(Cl)ccc(F)c1Cl [Crizotinib] + CCOc1nc(NC(=O)Cc2cc(OC)ccc2OC)cc(N)c1C#N [JNK inhibitor VIII] | 1.13 | 0.458 | 0.838 | 0.637 | 2.67 | 0.929 | 0.972 | 0.732 | 0.945 | 13.6 | 6.52 | 5.67 | 6.62 | 0 | 1.09 | 10.4 | 2.65 | 9.81 | 5.02 | 4.44 | 1.72 | 2.4 | 0 | 0 | 0 | 0.922 | 5.36 | 2.32 | 6.52 | 2.75 | 1.66 | 0 | 0.954 | 4.28 | 2.42 | 4.11
5 | C[C@@H](Oc1cc(-c2cnn(C3CCNCC3)c2)cnc1N)c1c(Cl)ccc(F)c1Cl [Crizotinib] + Cc1cc([C@@H](C)Nc2ccccc2C(=O)O)c2nc(N3CCOCC3)cc(=O)n2c1 [AZD6482] | 0.52 | 0.842 | 0.567 | 0.786 | 0.652 | 0.887 | 0.802 | 0.844 | 0.543 | 10.7 | 16.2 | 4.57 | 6.69 | 5.48 | 11.9 | 9.49 | 4.32 | 3.87 | 0.821 | 12.8 | 3.3 | 0.801 | 5.48 | 4.62 | 0.559 | 4.32 | 0.491 | 2.57 | 16.2 | 3.35 | 3.44 | 5.48 | 3.58 | 3.14 | 4.32 | 3.69
6 | CC(=O)O[C@@]12CO[C@@H]1C[C@H](O)[C@@]1(C)C(=O)[C@H](O)C3=C(C)[C@@H](OC(=O)[C@H](O)[C@@H](NC(=O)OC(C)(C)C)c4ccccc4)C[C@@](O)([C@@H](OC(=O)c4ccccc4)[C@H]21)C3(C)C [Docetaxel] + C#Cc1cccc(Nc2ncnc3cc(OCCOC)c(OCCOC)cc23)c1 [Erlotinib] | 0.962 | 0.998 | 0.678 | 0.934 | 1.1 | 0.834 | 0.781 | 0.956 | 0.713 | 2.49 | 5.05 | 7.84 | 9.27 | 3.14 | 0 | 5.52 | 9.15 | 6.82 | 0 | 2.48 | 2.96 | 0.0561 | 0 | 0 | 4.1 | 0.0594 | 0.59 | 1.4 | 5.05 | 7.84 | 5.33 | 0.182 | 0 | 5.52 | 8.54 | 0.504
7 | CC(=O)O[C@@]12CO[C@@H]1C[C@H](O)[C@@]1(C)C(=O)[C@H](O)C3=C(C)[C@@H](OC(=O)[C@H](O)[C@@H](NC(=O)OC(C)(C)C)c4ccccc4)C[C@@](O)([C@@H](OC(=O)c4ccccc4)[C@H]21)C3(C)C [Docetaxel] + CCC(=O)N1CCN(c2ccc(-n3c(=O)ccc4cnc5ccc(-c6cnc7ccccc7c6)cc5c43)cc2C(F)(F)F)CC1 [Torin1] | 0.895 | 0.976 | 0.732 | 0.8 | 0.448 | 0.95 | 0.749 | 0.949 | 0.53 | 2.76 | 6.14 | 14.4 | 12.8 | 28.7 | 9.71 | 3.38 | 9.53 | 4.14 | 0 | 0.704 | 0.0301 | 2.06 | 14 | 0 | 0.14 | 0.32 | 0.102 | 2.76 | 5.9 | 10.2 | 6.57 | 20.6 | 3.28 | 1.3 | 8.3 | 1.75
8 | CC(=O)O[C@@]12CO[C@@H]1C[C@H](O)[C@@]1(C)C(=O)[C@H](O)C3=C(C)[C@@H](OC(=O)[C@H](O)[C@@H](NC(=O)OC(C)(C)C)c4ccccc4)C[C@@](O)([C@@H](OC(=O)c4ccccc4)[C@H]21)C3(C)C [Docetaxel] + CCCCCCCCCCCC1=C(O)C(=O)C=C(O)C1=O [Embelin] | 1.08 | 0.835 | 0.659 | 1.01 | 0.827 | 0.349 | 0.849 | 0.982 | 0.911 | 3.01 | 9.62 | 6.6 | 1.82 | 0.7 | 1.16 | 3.76 | 2.71 | 0.358 | 0.24 | 3.66 | 3.74 | 0.0571 | 0.7 | 0 | 0.144 | 0.71 | 0.219 | 2.91 | 0.944 | 3.76 | 0 | 0.7 | 0.74 | 0.195 | 2.71 | 0.129
9 | CC(=O)O[C@@]12CO[C@@H]1C[C@H](O)[C@@]1(C)C(=O)[C@H](O)C3=C(C)[C@@H](OC(=O)[C@H](O)[C@@H](NC(=O)OC(C)(C)C)c4ccccc4)C[C@@](O)([C@@H](OC(=O)c4ccccc4)[C@H]21)C3(C)C [Docetaxel] + N#CC(c1ccnc(NCCc2cccnc2)n1)c1nc2ccccc2s1 [AS601245] | 1.13 | 0.69 | 0.673 | 0.887 | 0.00672 | 0.832 | 0.738 | 0.875 | 0.553 | 7.49 | 8.45 | 11.3 | 4.46 | 1.81 | 0.465 | 10.1 | 13 | 2.85 | 0.511 | 5.06 | 3.75 | 0.207 | 0.347 | 0.0376 | 2.39 | 4.9 | 0.0703 | 2.08 | 0.486 | 3.02 | 0.451 | 0.835 | 0.0158 | 5.22 | 10.3 | 0.96
